In ChEMBL document CHEMBL4507317, “Data for DCP probe BAY-899” (2021):

Columns and labels:
[1] = system: Tyrosine-protein kinase ABL1 (Homo sapiens), P00519 [F317I]; conditions: Compound concentration 1000.0 nM
[2] = system: Tyrosine-protein kinase ABL1 (Homo sapiens), P00519 [M351T]; conditions: Compound concentration 1000.0 nM
[3] = biological target: 5'-AMP-activated protein kinase catalytic subunit alpha-1 (Homo sapiens) (UniProt Q13131); conditions: Compound concentration 1000.0 nM
[4] = biological target: Serine/threonine-protein kinase BRSK1 (Homo sapiens) (UniProt Q8TDC3); conditions: Compound concentration 1000.0 nM
[5] = biological target: Calcium/calmodulin-dependent protein kinase kinase 2 (Homo sapiens) (UniProt Q96RR4); conditions: Compound concentration 1000.0 nM
[6] = biological target: Casein kinase II subunit alpha (Homo sapiens) (UniProt P68400); conditions: Compound concentration 1000.0 nM
[7] = biological target: Death-associated protein kinase 2 (Homo sapiens) (UniProt Q9UIK4); conditions: Compound concentration 1000.0 nM
[8] = biological target: Epidermal growth factor receptor (Homo sapiens) (UniProt P00533); conditions: Compound concentration 1000.0 nM
[9] = system: Epidermal growth factor receptor (Homo sapiens), P00533 [UNDEFINED MUTATION]; conditions: Compound concentration 1000.0 nM
[10] = biological target: Ephrin type-A receptor 2 (Homo sapiens) (UniProt P29317); conditions: Compound concentration 1000.0 nM
[11] = biological target: Fibroblast growth factor receptor 3 (Homo sapiens) (UniProt P22607); conditions: Compound concentration 1000.0 nM
[12] = system: Fibroblast growth factor receptor 3 (Homo sapiens), P22607 [G697C]; conditions: Compound concentration 1000.0 nM
[13] = biological target: Tyrosine-protein kinase Fgr (Homo sapiens) (UniProt P09769); conditions: Compound concentration 1000.0 nM
[14] = system: Receptor-type tyrosine-protein kinase FLT3 (Homo sapiens), P36888 [UNDEFINED MUTATION]; conditions: Compound concentration 1000.0 nM
[15] = system: Receptor-type tyrosine-protein kinase FLT3 (Homo sapiens), P36888 [UNDEFINED MUTATION]; conditions: Compound concentration 1000.0 nM; remark: listed apart in the source
[16] = biological target: Receptor-type tyrosine-protein kinase FLT3 (Homo sapiens) (UniProt P36888); conditions: Compound concentration 1000.0 nM
[17] = biological target: Tyrosine-protein kinase FRK (Homo sapiens) (UniProt P42685); conditions: Compound concentration 1000.0 nM
[18] = biological target: G protein-coupled receptor kinase 3 (Homo sapiens) (UniProt P35626); conditions: Compound concentration 1000.0 nM
[19] = biological target: Insulin receptor (Homo sapiens) (UniProt P06213); conditions: Compound concentration 1000.0 nM
[20] = biological target: Mitogen-activated protein kinase 10 (Homo sapiens) (UniProt P53779); conditions: Compound concentration 1000.0 nM
[21] = system: Mast/stem cell growth factor receptor Kit (Homo sapiens), P10721 [D816V]; conditions: Compound concentration 1000.0 nM
[22] = system: Mast/stem cell growth factor receptor Kit (Homo sapiens), P10721 [L576P]; conditions: Compound concentration 1000.0 nM
[23] = biological target: Mitogen-activated protein kinase kinase kinase 2 (Homo sapiens) (UniProt Q9Y2U5); conditions: Compound concentration 1000.0 nM
[24] = biological target: Mitogen-activated protein kinase kinase kinase 3 (Homo sapiens) (UniProt Q99759); conditions: Compound concentration 1000.0 nM
[25] = biological target: Dual specificity mitogen-activated protein kinase kinase 3 (Homo sapiens) (UniProt P46734); conditions: Compound concentration 1000.0 nM
[26] = biological target: Hepatocyte growth factor receptor (Homo sapiens) (UniProt P08581); conditions: Compound concentration 1000.0 nM
[27] = biological target: Serine/threonine-protein kinase Nek1 (Homo sapiens) (UniProt Q96PY6); conditions: Compound concentration 1000.0 nM
[28] = biological target: Serine/threonine-protein kinase Nek4 (Homo sapiens) (UniProt P51957); conditions: Compound concentration 1000.0 nM
[29] = biological target: Mitogen-activated protein kinase kinase kinase 14 (Homo sapiens) (UniProt Q99558); conditions: Compound concentration 1000.0 nM
[30] = biological target: Serine/threonine-protein kinase PAK 1 (Homo sapiens) (UniProt Q13153); conditions: Compound concentration 1000.0 nM
[31] = biological target: Protein kinase C theta type (Homo sapiens) (UniProt Q04759); conditions: Compound concentration 1000.0 nM
[32] = biological target: Serine/threonine-protein kinase PRP4 homolog (Homo sapiens) (UniProt Q13523); conditions: Compound concentration 1000.0 nM
[33] = system: Proto-oncogene tyrosine-protein kinase receptor Ret (Homo sapiens), P07949 [M918T]; conditions: Compound concentration 1000.0 nM
[34] = biological target: Receptor-interacting serine/threonine-protein kinase 2 (Homo sapiens) (UniProt O43353); conditions: Compound concentration 1000.0 nM
[35] = biological target: Dual serine/threonine and tyrosine protein kinase (Homo sapiens) (UniProt Q6XUX3); conditions: Compound concentration 1000.0 nM
[36] = biological target: Ribosomal protein S6 kinase alpha-5 (Homo sapiens) (UniProt O75582); conditions: Compound concentration 1000.0 nM
[37] = biological target: Serine/threonine-protein kinase Sgk2 (Homo sapiens) (UniProt Q9HBY8); conditions: Compound concentration 1000.0 nM
[38] = biological target: Proto-oncogene tyrosine-protein kinase Src (Homo sapiens) (UniProt P12931); conditions: Compound concentration 1000.0 nM
[39] = biological target: Serine/threonine-protein kinase 35 (Homo sapiens) (UniProt Q8TDR2); conditions: Compound concentration 1000.0 nM
[40] = biological target: TRAF2 and NCK-interacting protein kinase (Homo sapiens) (UniProt Q9UKE5); conditions: Compound concentration 1000.0 nM
[41] = biological target: Non-receptor tyrosine-protein kinase TNK1 (Homo sapiens) (UniProt Q13470); conditions: Compound concentration 1000.0 nM
[42] = biological target: Serine/threonine-protein kinase WNK3 (Homo sapiens) (UniProt Q9BYP7); conditions: Compound concentration 1000.0 nM
[43] = biological target: Serine/threonine-protein kinase 32A (Homo sapiens) (UniProt Q8WU08); conditions: Compound concentration 1000.0 nM
[44] = biological target: 5-hydroxytryptamine receptor 3A (Homo sapiens) (UniProt P46098); conditions: Compound concentration 10.0 uM
[45] = biological target: Alpha-1B adrenergic receptor (Homo sapiens) (UniProt P35368); conditions: Compound concentration 10.0 uM

Sequence of Receptor-type tyrosine-protein kinase FLT3 (Homo sapiens), P36888 [UNDEFINED MUTATION] (P36888 whole entry, looked up, change not shown): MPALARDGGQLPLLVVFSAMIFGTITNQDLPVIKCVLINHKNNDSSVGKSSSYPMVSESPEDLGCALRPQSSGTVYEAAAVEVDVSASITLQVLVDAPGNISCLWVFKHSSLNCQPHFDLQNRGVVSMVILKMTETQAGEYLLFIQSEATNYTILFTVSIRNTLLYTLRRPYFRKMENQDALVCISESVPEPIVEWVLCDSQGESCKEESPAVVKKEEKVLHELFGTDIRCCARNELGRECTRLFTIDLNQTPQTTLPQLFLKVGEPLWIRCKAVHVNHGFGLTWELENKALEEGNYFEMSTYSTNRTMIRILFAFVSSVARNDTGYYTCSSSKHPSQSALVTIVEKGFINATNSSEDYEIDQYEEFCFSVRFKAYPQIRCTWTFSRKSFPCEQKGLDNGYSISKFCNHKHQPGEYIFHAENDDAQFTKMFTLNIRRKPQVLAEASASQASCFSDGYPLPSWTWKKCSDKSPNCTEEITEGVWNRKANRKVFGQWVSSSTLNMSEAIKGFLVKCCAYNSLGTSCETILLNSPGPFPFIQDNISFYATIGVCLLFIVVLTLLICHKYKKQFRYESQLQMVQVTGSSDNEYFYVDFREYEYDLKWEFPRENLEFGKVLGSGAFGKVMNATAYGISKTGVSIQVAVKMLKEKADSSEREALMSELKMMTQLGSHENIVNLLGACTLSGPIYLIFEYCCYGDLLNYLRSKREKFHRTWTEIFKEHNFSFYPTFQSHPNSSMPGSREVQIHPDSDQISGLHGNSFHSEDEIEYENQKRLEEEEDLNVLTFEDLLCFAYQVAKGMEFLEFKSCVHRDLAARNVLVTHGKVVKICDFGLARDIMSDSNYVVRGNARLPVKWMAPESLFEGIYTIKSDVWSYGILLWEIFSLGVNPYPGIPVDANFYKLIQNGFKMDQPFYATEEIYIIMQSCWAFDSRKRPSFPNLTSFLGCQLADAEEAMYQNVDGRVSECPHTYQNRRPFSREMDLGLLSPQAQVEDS
Sequence of Serine/threonine-protein kinase WNK3 (Homo sapiens) (Q9BYP7 whole entry): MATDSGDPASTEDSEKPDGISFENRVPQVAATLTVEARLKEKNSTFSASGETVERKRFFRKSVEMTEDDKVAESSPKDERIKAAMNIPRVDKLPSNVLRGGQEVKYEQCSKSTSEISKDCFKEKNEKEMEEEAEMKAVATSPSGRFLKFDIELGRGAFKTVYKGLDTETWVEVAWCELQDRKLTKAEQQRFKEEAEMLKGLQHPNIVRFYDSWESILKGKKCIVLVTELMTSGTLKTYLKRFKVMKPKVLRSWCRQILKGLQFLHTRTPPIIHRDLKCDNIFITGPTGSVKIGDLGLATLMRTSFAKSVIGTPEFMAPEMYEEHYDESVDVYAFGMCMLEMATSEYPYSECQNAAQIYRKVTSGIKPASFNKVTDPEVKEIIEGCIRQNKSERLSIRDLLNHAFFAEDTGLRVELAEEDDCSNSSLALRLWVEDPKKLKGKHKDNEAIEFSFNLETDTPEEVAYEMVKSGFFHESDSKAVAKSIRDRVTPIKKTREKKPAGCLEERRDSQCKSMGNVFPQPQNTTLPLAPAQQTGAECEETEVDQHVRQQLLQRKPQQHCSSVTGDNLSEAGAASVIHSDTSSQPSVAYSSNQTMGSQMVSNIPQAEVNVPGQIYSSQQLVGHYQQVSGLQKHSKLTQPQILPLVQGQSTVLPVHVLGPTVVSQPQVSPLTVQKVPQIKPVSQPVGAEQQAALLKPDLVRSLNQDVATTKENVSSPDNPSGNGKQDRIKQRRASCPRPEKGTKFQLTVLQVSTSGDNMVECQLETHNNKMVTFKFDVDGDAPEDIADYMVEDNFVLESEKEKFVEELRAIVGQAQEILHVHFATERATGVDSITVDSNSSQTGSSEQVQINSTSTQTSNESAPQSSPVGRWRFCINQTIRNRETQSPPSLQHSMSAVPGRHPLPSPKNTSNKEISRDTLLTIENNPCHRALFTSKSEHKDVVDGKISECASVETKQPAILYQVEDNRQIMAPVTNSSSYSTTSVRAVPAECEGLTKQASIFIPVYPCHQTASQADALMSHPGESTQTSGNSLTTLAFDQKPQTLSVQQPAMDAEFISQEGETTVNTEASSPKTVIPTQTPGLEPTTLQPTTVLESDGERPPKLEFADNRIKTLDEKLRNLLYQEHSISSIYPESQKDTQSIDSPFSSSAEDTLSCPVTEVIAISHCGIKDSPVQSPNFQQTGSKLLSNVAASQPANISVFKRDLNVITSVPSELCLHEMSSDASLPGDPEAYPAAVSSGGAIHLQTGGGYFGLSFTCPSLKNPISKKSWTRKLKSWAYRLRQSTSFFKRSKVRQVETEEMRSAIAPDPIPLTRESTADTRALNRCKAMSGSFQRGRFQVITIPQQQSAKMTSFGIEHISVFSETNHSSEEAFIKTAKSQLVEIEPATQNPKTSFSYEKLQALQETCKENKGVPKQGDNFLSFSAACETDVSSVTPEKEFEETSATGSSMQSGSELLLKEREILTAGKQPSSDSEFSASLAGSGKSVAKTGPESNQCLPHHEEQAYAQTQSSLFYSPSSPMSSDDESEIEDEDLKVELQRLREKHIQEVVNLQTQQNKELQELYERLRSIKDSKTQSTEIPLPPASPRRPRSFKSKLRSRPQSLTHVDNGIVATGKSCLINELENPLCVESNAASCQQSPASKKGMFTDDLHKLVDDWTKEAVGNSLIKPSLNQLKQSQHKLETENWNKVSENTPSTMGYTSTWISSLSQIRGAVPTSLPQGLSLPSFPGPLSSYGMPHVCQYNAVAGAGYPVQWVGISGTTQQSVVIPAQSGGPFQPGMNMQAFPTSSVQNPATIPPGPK
Sequence of Fibroblast growth factor receptor 3 (Homo sapiens) (P22607 23-806 limits assumed): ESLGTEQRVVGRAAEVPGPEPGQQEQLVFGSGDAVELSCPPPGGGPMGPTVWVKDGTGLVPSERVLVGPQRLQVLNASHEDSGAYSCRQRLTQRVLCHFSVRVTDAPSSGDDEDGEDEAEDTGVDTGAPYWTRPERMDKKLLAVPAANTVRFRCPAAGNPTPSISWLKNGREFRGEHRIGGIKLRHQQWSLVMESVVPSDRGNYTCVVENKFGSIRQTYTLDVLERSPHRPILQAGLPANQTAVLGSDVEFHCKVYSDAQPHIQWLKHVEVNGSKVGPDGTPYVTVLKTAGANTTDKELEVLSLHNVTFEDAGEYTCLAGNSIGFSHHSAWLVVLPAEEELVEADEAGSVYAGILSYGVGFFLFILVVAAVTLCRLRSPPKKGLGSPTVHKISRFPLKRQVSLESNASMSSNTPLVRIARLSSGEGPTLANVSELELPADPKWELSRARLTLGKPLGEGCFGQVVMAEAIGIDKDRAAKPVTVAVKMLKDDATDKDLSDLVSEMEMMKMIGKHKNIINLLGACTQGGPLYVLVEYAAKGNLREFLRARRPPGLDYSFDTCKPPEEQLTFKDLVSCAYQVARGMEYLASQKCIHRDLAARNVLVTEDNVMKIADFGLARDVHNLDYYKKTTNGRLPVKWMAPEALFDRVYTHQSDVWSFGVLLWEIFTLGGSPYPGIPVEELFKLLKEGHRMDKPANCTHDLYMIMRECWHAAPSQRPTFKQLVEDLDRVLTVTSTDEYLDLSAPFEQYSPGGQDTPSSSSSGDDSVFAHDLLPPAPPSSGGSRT
Sequence of 5'-AMP-activated protein kinase catalytic subunit alpha-1 (Homo sapiens) (Q13131 whole entry, looked up): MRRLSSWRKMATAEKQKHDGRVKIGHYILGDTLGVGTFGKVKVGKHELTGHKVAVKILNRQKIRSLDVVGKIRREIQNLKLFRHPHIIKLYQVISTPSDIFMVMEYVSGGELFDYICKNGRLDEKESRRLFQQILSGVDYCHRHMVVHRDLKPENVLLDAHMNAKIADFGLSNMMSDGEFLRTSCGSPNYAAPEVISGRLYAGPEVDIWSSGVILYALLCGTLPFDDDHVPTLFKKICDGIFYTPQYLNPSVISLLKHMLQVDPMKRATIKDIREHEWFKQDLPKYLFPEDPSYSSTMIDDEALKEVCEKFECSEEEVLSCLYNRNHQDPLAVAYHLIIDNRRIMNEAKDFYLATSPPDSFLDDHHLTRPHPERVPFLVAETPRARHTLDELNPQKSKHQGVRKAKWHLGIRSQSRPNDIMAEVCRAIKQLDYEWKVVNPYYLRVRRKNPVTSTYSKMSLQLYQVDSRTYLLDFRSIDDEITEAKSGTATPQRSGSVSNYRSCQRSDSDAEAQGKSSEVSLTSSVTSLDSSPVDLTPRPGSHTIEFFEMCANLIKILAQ
Sequence of Serine/threonine-protein kinase BRSK1 (Homo sapiens) (Q8TDC3 whole entry): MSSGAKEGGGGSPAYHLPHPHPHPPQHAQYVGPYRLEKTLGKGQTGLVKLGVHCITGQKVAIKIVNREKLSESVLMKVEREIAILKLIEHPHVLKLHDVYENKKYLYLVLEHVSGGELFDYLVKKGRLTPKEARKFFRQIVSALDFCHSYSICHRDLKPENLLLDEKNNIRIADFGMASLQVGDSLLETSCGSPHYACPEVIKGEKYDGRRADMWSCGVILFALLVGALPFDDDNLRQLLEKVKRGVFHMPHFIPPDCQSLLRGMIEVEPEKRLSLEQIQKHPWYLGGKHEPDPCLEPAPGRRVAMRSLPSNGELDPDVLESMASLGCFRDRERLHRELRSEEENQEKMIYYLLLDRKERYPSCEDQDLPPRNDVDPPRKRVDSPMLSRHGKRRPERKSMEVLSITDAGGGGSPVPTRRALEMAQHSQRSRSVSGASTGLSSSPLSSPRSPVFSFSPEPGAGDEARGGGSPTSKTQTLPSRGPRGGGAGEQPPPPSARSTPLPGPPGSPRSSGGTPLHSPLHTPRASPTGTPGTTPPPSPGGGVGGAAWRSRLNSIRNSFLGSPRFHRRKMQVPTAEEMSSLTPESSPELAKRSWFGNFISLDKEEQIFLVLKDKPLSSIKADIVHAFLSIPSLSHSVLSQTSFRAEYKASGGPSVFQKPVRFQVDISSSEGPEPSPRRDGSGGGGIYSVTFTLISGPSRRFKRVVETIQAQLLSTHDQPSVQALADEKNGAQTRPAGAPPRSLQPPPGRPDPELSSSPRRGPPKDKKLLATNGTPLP
Sequence of Receptor-type tyrosine-protein kinase FLT3 (Homo sapiens) (P36888 whole entry): as the sequence (P36888 whole entry, looked up, change not shown) above

O=C(Nc1ccc(Oc2ccc(F)cc2)cc1)N1CCc2ncccc2[C@H]1c1ccc(F)cc1 [BAY-897]
inactive: residual activity [1] 94% | residual activity [2] 51% | residual activity [3] 96% | residual activity [4] 100% | residual activity [5] 100% | residual activity [6] 99% | residual activity [7] 100% | residual activity [8] 100% | residual activity [9] 100% | residual activity [10] 100% | residual activity [11] 83% | residual activity [12] 100% | residual activity [13] 100% | residual activity [14] 99% | residual activity [15] 93% | residual activity [16] 100% | residual activity [17] 93% | residual activity [18] 95% | residual activity [19] 86% | residual activity [20] 82% | residual activity [21] 100% | residual activity [22] 100% | residual activity [23] 89% | residual activity [24] 87% | residual activity [25] 88% | residual activity [26] 100% | residual activity [27] 100% | residual activity [28] 94% | residual activity [29] 61% | residual activity [30] 82% | residual activity [31] 95% | residual activity [32] 100% | residual activity [33] 100% | residual activity [34] 96% | residual activity [35] 100% | residual activity [36] 74% | residual activity [37] 100% | residual activity [38] 91% | residual activity [39] 80% | residual activity [40] 100% | residual activity [41] 96% | residual activity [42] 94% | residual activity [43] 100% | inhibition [44] 4.7% | inhibition [45] 12.2%

O=C(Nc1cnc(Oc2ccc(F)cc2)nc1)N1CCc2ncccc2[C@@H]1c1ccc(F)cc1 [BAY-899]
inactive: residual activity [1] 99% | residual activity [2] 57% | residual activity [3] 88% | residual activity [4] 87% | residual activity [5] 93% | residual activity [6] 93% | residual activity [7] 91% | residual activity [8] 100% | residual activity [9] 100% | residual activity [10] 99% | residual activity [11] 89% | residual activity [12] 89% | residual activity [13] 100% | residual activity [14] 92% | residual activity [15] 79% | residual activity [16] 90% | residual activity [17] 98% | residual activity [18] 96% | residual activity [19] 81% | residual activity [20] 88% | residual activity [21] 98% | residual activity [22] 100% | residual activity [23] 99% | residual activity [24] 97% | residual activity [25] 76% | residual activity [26] 100% | residual activity [27] 84% | residual activity [28] 79% | residual activity [29] 100% | residual activity [30] 71% | residual activity [31] 94% | residual activity [32] 90% | residual activity [33] 95% | residual activity [34] 93% | residual activity [35] 100% | residual activity [36] 74% | residual activity [37] 79% | residual activity [38] 93% | residual activity [39] 71% | residual activity [40] 100% | residual activity [41] 97% | residual activity [42] 93% | residual activity [43] 100% | inhibition [44] 45.8% | inhibition [45] -4.4%
